According to US10112941B2, “Tricyclic compounds as anticancer agents” (BRISTOL-MYERS SQUIBB COMPANY, priority 2013, dated 2018):

Target: BRD4 (Homo sapiens, UniProt O60885)
Assay: Time Resolved Fluorescence Resonance Energy Transfer (TR-FRET) binding assay, BRD4
Settings: one of the FRET assays described; read-out: FRET BRD4 IC50

SMILES | IC50
Cc1nnn(C)c1-c1cnc2c3ccc(C(C)(C)O)cc3n(C(c3ccc(F)c(F)c3)C3CCOCC3)c2c1 (single isomer, unassigned) [Example 96, 2-{5-[(3,4-Difluorophenyl)(oxan-4-yl)methyl]-3-(dimethyl-1H-1,2,3-triazol-5-yl)-5H-pyrido[3,2-b]indol-7-yl}propan-2-ol] | < 25 nM
Cc1nnn(C)c1-c1cnc2c3ccc(C(C)(C)O)cc3n(C(c3ccc(F)c(F)c3)C3CCOCC3)c2c1 (single isomer, unassigned) [Example 97, 2-{5-[(3,4-Difluorophenyl)(oxan-4-yl)methyl]-3-(dimethyl-1H-1,2,3-triazol-5-yl)-5H-pyrido[3,2-b]indol-7-yl}propan-2-ol] | < 5 nM
Cc1nnn(C)c1-c1cnc2c3ccc(C(C)(C)O)cc3n(C(c3cc(F)cc(F)c3)C3CCOCC3)c2c1 (single isomer, unassigned) [Example 98, 2-{5-[(3,5-Difluorophenyl)(oxan-4-yl)methyl]-3-(dimethyl-1H-1,2,3-triazol-5-yl)-5H-pyrido[3,2-b]indol-7-yl}propan-2-ol] | < 5 nM
Cc1nnn(C)c1-c1cnc2c3ccc(C(C)(C)O)cc3n(C(c3cc(F)cc(F)c3)C3CCOCC3)c2c1 (single isomer, unassigned) [Example 99, 2-{5-[(3,5-Difluorophenyl)(oxan-4-yl)methyl]-3-(dimethyl-1H-1,2,3-triazol-5-yl)-5H-pyrido[3,2-b]indol-7-yl}propan-2-ol] | < 5 nM
Cc1nnn(C)c1-c1cnc2c3ccc(C(C)(C)O)cc3n(C(c3cccc(F)c3)C3CCOCC3)c2c1 (single isomer, unassigned) [Example 100, 2-[3-(Dimethyl-1H-1,2,3-triazol-5-yl)-5-[(3-fluorophenyl)(oxan-4-yl)methyl]-5H-pyrido[3,2-b]indol-7-yl]propan-2-ol] | < 5 nM
Cc1nnn(C)c1-c1cnc2c3ccc(C(C)(C)O)cc3n(C(c3cccc(F)c3)C3CCOCC3)c2c1 (single isomer, unassigned) [Example 101, 2-[3-(Dimethyl-1H-1,2,3-triazol-5-yl)-5-[(3-fluorophenyl)(oxan-4-yl)methyl]-5H-pyrido[3,2-b]indol-7-yl]propan-2-ol] | < 25 nM
Cc1nnn(C)c1-c1cnc2c3ccc(C(C)(C)O)cc3n(C(c3c(F)cc(F)cc3F)C3CCOCC3)c2c1 (single isomer, unassigned) [Example 102, 2-[3-(Dimethyl-1H-1,2,3-triazol-5-yl)-5-[oxan-4-yl(2,4,6-trifluorophenyl)methyl]-5H-pyrido[3,2-b]indol-7-yl]propan-2-ol] | < 5 nM
Cc1nnn(C)c1-c1cnc2c3ccc(C(C)(C)O)cc3n(C(c3c(F)cc(F)cc3F)C3CCOCC3)c2c1 (single isomer, unassigned) [Example 103, 2-[3-(Dimethyl-1H-1,2,3-triazol-5-yl)-5-[oxan-4-yl(2,4,6-trifluorophenyl)methyl]-5H-pyrido[3,2-b]indol-7-yl]propan-2-ol] | < 5 nM
Cc1nnn(C)c1-c1cnc2c3c(F)cc(C(C)(C)O)cc3n(C(c3c(F)cc(F)cc3F)C3CCOCC3)c2c1 (single isomer, unassigned) [Example 104, 2-[3-(Dimethyl-1H-1,2,3-triazol-5-yl)-9-fluoro-5-[oxan-4-yl(2,4,6-trifluorophenyl)methyl]-5H-pyrido[3,2-b]indol-7-yl]propan-2-ol] | < 5 nM
Cc1nnn(C)c1-c1cnc2c3c(F)cc(C(C)(C)O)cc3n(C(c3c(F)cc(F)cc3F)C3CCOCC3)c2c1 (single isomer, unassigned) [Example 105, 2-[3-(Dimethyl-1H-1,2,3-triazol-5-yl)-9-fluoro-5-[oxan-4-yl(2,4,6-trifluorophenyl)methyl]-5H-pyrido[3,2-b]indol-7-yl]propan-2-ol] | < 5 nM
Cc1nnn(C)c1-c1cnc2c3c(F)cc(C(C)(C)O)cc3n(C(c3cc(F)ccc3F)C3CCOCC3)c2c1 (single isomer, unassigned) [Example 106, 2-{5-[(2,5-Difluorophenyl)(oxan-4-yl)methyl]-3-(dimethyl-1H-1,2,3-triazol-5-yl)-9-fluoro-5H-pyrido[3,2-b]indol-7-yl}propan-2-ol] | < 5 nM
Cc1nnn(C)c1-c1cnc2c3c(F)cc(C(C)(C)O)cc3n(C(c3cc(F)ccc3F)C3CCOCC3)c2c1 (single isomer, unassigned) [Example 107, 2-{5-[(2,5-Difluorophenyl)(oxan-4-yl)methyl]-3-(dimethyl-1H-1,2,3-triazol-5-yl)-9-fluoro-5H-pyrido[3,2-b]indol-7-yl}propan-2-ol] | < 5 nM
Cc1nnn(C)c1-c1cnc2c3c(F)cc(C(C)(C)O)cc3n(C(c3cccc(F)c3F)C3CCOCC3)c2c1 (single isomer, unassigned) [Example 108, 2-{5-[(2,3-Difluorophenyl)(oxan-4-yl)methyl]-3-(dimethyl-1H-1,2,3-triazol-5-yl)-9-fluoro-5H-pyrido[3,2-b]indol-7-yl}propan-2-ol] | < 5 nM
Cc1nnn(C)c1-c1cnc2c3c(F)cc(C(C)(C)O)cc3n(C(c3cccc(F)c3F)C3CCOCC3)c2c1 (single isomer, unassigned) [Example 109, 2-{5-[(2,3-Difluorophenyl)(oxan-4-yl)methyl]-3-(dimethyl-1H-1,2,3-triazol-5-yl)-9-fluoro-5H-pyrido[3,2-b]indol-7-yl}propan-2-ol] | < 5 nM
Cc1nnn(C)c1-c1cnc2c3c(F)cc(C(C)(C)O)cc3n(C(c3ccc(F)cc3F)C3CCOCC3)c2c1 (single isomer, unassigned) [Example 110, 2-{5-[(2,4-Difluorophenyl)(oxan-4-yl)methyl]-3-(dimethyl-1H-1,2,3-triazol-5-yl)-9-fluoro-5H-pyrido[3,2-b]indol-7-yl}propan-2-ol] | < 5 nM
Cc1nnn(C)c1-c1cnc2c3c(F)cc(C(C)(C)O)cc3n(C(c3ccc(F)cc3F)C3CCOCC3)c2c1 (single isomer, unassigned) [Example 111, 2-{5-[(2,4-Difluorophenyl)(oxan-4-yl)methyl]-3-(dimethyl-1H-1,2,3-triazol-5-yl)-9-fluoro-5H-pyrido[3,2-b]indol-7-yl}propan-2-ol] | < 5 nM
Cc1nnn(C)c1-c1cnc2c3c(F)cc(C(C)(C)O)cc3n(C(c3cccc(F)c3)C3CCOCC3)c2c1 (single isomer, unassigned) [Example 112, 2-[3-(Dimethyl-1H-1,2,3-triazol-5-yl)-9-fluoro-5-[(3-fluorophenyl)(oxan-4-yl)methyl]-5H-pyrido[3,2-b]indol-7-yl]propan-2-ol] | < 5 nM
Cc1nnn(C)c1-c1cnc2c3c(F)cc(C(C)(C)O)cc3n(C(c3cccc(F)c3)C3CCOCC3)c2c1 (single isomer, unassigned) [Example 113, 2-[3-(Dimethyl-1H-1,2,3-triazol-5-yl)-9-fluoro-5-[(3-fluorophenyl)(oxan-4-yl)methyl]-5H-pyrido[3,2-b]indol-7-yl]propan-2-ol] | < 1500 nM
Cc1nnn(C)c1-c1cnc2c3c(S(C)(=O)=O)cccc3n(C(c3ccccc3F)C3CCOCC3)c2c1 (single isomer, unassigned) [Example 115, 5-{5-[(2-Fluorophenyl)(oxan-4-yl)methyl]-9-methanesulfonyl-5H-pyrido[3,2-b]indol-3-yl}-1,4-dimethyl-1H-1,2,3-triazole] | < 5 nM
Cc1nnn(C)c1-c1cnc2c3c(S(C)(=O)=O)cccc3n(C(c3ccccc3F)C3CCOCC3)c2c1 (single isomer, unassigned) [Example 116, 5-{5-[(2-Fluorophenyl)(oxan-4-yl)methyl]-9-methanesulfonyl-5H-pyrido[3,2-b]indol-3-yl}-1,4-dimethyl-1H-1,2,3-triazole] | < 25 nM
Cc1nnn(C)c1-c1cnc2c3c(S(C)(=O)=O)cccc3n(C(c3c(F)cc(F)cc3F)C3CCOCC3)c2c1 (single isomer, unassigned) [Example 117, 5-{9-Methanesulfonyl-5-[oxan-4-yl(2,4,6-trifluorophenyl)methyl]-5H-pyrido[3,2-b]indol-3-yl}-1,4-dimethyl-1H-1,2,3-triazole] | < 5 nM
Cc1nnn(C)c1-c1cnc2c3c(S(C)(=O)=O)cccc3n(C(c3c(F)cc(F)cc3F)C3CCOCC3)c2c1 (single isomer, unassigned) [Example 118, 5-{9-Methanesulfonyl-5-[oxan-4-yl(2,4,6-trifluorophenyl)methyl]-5H-pyrido[3,2-b]indol-3-yl}-1,4-dimethyl-1H-1,2,3-triazole] | < 5 nM
COc1ccc(C(C2CCOCC2)n2c3cc(C(C)(C)O)ccc3c3ncc(-c4c(C)nnn4C)cc32)c(F)c1 (single isomer, unassigned) [Example 119, 2-[3-(Dimethyl-1H-1,2,3-triazol-5-yl)-5-[(2-fluoro-4-methoxyphenyl)(oxan-4-yl)methyl]-5H-pyrido[3,2-b]indol-7-yl]propan-2-ol] | < 5 nM
COc1ccc(C(C2CCOCC2)n2c3cc(C(C)(C)O)ccc3c3ncc(-c4c(C)nnn4C)cc32)c(F)c1 (single isomer, unassigned) [Example 120, 2-[3-(Dimethyl-1H-1,2,3-triazol-5-yl)-5-[(2-fluoro-4-methoxyphenyl)(oxan-4-yl)methyl]-5H-pyrido[3,2-b]indol-7-yl]propan-2-ol] | < 5 nM
COc1ccc(C(C2CCOCC2)n2c3cc(C(C)(C)O)ccc3c3ncc(-c4c(C)nnn4C)cc32)c(F)c1F (single isomer, unassigned) [Example 121, 2-{5-[(2,3-Difluoro-4-methoxyphenyl)(oxan-4-yl)methyl]-3-(dimethyl-1H-1,2,3-triazol-5-yl)-5H-pyrido[3,2-b]indol-7-yl}propan-2-ol] | < 25 nM
COc1ccc(C(C2CCOCC2)n2c3cc(C(C)(C)O)ccc3c3ncc(-c4c(C)nnn4C)cc32)c(F)c1F (single isomer, unassigned) [Example 122, 2-{5-[(2,3-Difluoro-4-methoxyphenyl)(oxan-4-yl)methyl]-3-(dimethyl-1H-1,2,3-triazol-5-yl)-5H-pyrido[3,2-b]indol-7-yl}propan-2-ol] | < 5 nM
COc1cc(F)c(C(C2CCOCC2)n2c3cc(C(C)(C)O)ccc3c3ncc(-c4c(C)nnn4C)cc32)cc1F (single isomer, unassigned) [Example 123, 2-{5-[(2,5-Difluoro-4-methoxyphenyl)(oxan-4-yl)methyl]-3-(dimethyl-1H-1,2,3-triazol-5-yl)-5H-pyrido[3,2-b]indol-7-yl}propan-2-ol] | < 5 nM
